In ChEMBL document CHEMBL4602611, “Discovery of 1,2,4-triazine-based derivatives as novel neddylation inhibitors and anticancer activity studies against gastric cancer MGC-803 cells” (Bioorg Med Chem Lett, 2020):
Calls of active or inactive are those of the source. The rule behind the calls is not given here.

What was measured:
MGC-803 [1] = test: Antiproliferative activity against human MGC803 cells assessed as inhibition of cell growth incubated for 48 hrs by MTT assay; format: functional, cell-based; conditions: for IC50: MGC-803, 48 h
ECa-109 cell line = test: Antiproliferative activity against human EC109 cells assessed as inhibition of cell growth incubated for 48 hrs by MTT assay; format: functional, cell-based; conditions: ECa-109, 48 h
PC-3 = test: Antiproliferative activity against human PC3 cells assessed as inhibition of cell growth incubated for 48 hrs by MTT assay; format: functional, cell-based; conditions: PC-3, 48 h
[2] = biological target: T1, NEDD8-activating enzyme E1 regulatory subunit (Homo sapiens) (UniProt Q13564); test: Inhibition of NAE-mediated neddylation in human MGC803 cells assessed as reduction in Nedd8-Cullin1 adduct formation by Western blot analysis; format: cell-based
T1 sequence (whole entry): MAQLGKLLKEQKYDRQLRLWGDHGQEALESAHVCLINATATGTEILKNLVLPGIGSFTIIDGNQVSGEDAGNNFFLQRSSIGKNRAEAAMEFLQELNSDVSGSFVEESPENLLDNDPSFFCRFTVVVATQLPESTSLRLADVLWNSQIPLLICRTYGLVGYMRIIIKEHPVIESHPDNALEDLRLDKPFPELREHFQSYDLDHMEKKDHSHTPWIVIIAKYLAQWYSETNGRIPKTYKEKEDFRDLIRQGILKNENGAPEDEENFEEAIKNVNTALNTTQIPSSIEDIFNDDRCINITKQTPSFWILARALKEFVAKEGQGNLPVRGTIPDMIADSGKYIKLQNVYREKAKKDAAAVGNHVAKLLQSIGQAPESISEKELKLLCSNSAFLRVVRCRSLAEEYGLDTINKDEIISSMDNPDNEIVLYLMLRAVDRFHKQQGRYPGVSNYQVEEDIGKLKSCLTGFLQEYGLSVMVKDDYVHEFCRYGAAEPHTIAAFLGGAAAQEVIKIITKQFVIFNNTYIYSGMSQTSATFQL

[3] = biological target: T1, NEDD8-activating enzyme E1 regulatory subunit (Homo sapiens); test: Inhibition of NAE (unknown origin)-mediated neddylation assessed as decrease in Nedd8-Ubcl2 adduct formation at 10 uM by Western blot analysis
[4] = biological target: T1, NEDD8-activating enzyme E1 regulatory subunit (Homo sapiens); test: Inhibition of NAE-mediated neddylation in human MGC803 cells assessed as reduction in Nedd8-Ubcl2 adduct formation at 5 uM incubated for 24 hrs by Western blot analysis; format: cell-based; conditions: MGC-803
MGC-803 [5] = test: Increase in p21 protein expression in human MGC803 cells at 5 to 20 umol/l incubated for 24 hrs by Western blot analysis; format: functional, cell-based
[6] = biological target: T1, NEDD8-activating enzyme E1 regulatory subunit (Homo sapiens); test: Inhibition of NAE-mediated neddylation in human MGC803 cells assessed as reduction in NAE1-Nedd8 adduct formation at 10 uM incubated for 24 hrs by Western blot analysis; format: cell-based; conditions: MGC-803
[7] = biological target: T1, NEDD8-activating enzyme E1 regulatory subunit (Homo sapiens); test: Inhibition of NAE (unknown origin)-mediated neddylation assessed as decrease in Nedd8-Ubcl2 adduct formation at 5 uM by Western blot analysis
MGC-803 [8] = test: Upregulation in Bax protein expression in human MGC803 cells at 5 to 20 umol/l incubated for 48 hrs by Western blot analysis; format: functional, cell-based
MGC-803 [9] = test: Increase in ATF4 protein expression in human MGC803 cells at 5 to 20 umol/l incubated for 24 hrs by Western blot analysis; format: functional, cell-based
[10] = biological target: T1, NEDD8-activating enzyme E1 regulatory subunit (Homo sapiens); test: (§1) Inhibition of NAE-mediated neddylation in human MGC803 cells assessed as reduction in Nedd8-Ubcl2 adduct formation incubated for 24 hrs by Western blot analysis; format: cell-based; conditions: MGC-803
[11] = biological target: T2, NEDD8-activating enzyme E1 regulatory subunit (Homo sapiens, UniProt Q13564); test: as §1; format: cell-based, MGC-803
T2 sequence (Q13564 whole entry): T1 sequence (whole entry)

MGC-803 [12] = test: Antiproliferative activity against human MGC803 cells assessed as fold increase in cell growth at 10 umol/l incubated for 48 hrs by MTT assay relative to control; format: functional
MGC-803 [13] = test: Downregulation of CDK1 protein expression in human MGC803 cells at 5 to 20 umol/l incubated for 24 hrs by Western blot analysis; format: functional, cell-based
MGC-803 [14] = test: Inhibition of colony formation in human MGC803 cells at 0.5 uM incubated for 7 days by crystal violet staining based assay; format: functional, cell-based
MGC-803 [15] = test: Increase in DR5 protein expression in human MGC803 cells at 5 to 20 umol/l incubated for 24 hrs by Western blot analysis; format: functional, cell-based
MGC-803 [16] = test: Induction of apoptosis in human MGC803 cells assessed as increase in cleaved caspase9 expression at 5 to 20 umol/l incubated for 48 hrs by Western blot analysis; format: functional, cell-based
MGC-803 [17] = test: Downregulation of XIAP protein expression in human MGC803 cells at 5 to 20 umol/l incubated for 48 hrs by Western blot analysis; format: functional, cell-based
MGC-803 [18] = test: Induction of cell cycle arrest in human MGC803 cells assessed as fold change in accumulation in G2/M phase at 5 to 20 umol/l incubated for 24 hrs by propidium iodide staining based flow cytometric analysis relative to control; format: functional
MGC-803 [19] = test: Increase in Noxa protein expression in human MGC803 cells at 5 to 20 umol/l incubated for 24 hrs by Western blot analysis; format: functional, cell-based
MGC-803 [20] = test: Induction of apoptosis in human MGC803 cells assessed as increase in cleaved caspase3 expression at 5 to 20 umol/l incubated for 48 hrs by Western blot analysis; format: functional, cell-based
MGC-803 [21] = test: Induction of apoptosis in human MGC803 cells assessed as increase in cleaved PARP expression at 5 to 20 umol/l incubated for 48 hrs by Western blot analysis; format: functional, cell-based
MGC-803 [22] = test: Downregulation of Cyclin B1 protein expression in human MGC803 cells at 5 to 20 umol/l incubated for 24 hrs by Western blot analysis; format: functional, cell-based
MGC-803 [23] = test: Induction of cell cycle arrest in human MGC803 cells assessed as accumulation in G2/M phase at 5 to 20 umol/l incubated for 24 hrs by propidium iodide staining based flow cytometric analysis; format: functional
MGC-803 [24] = test: Antiproliferative activity against human MGC803 cells assessed as inhibition of cell growth at 10 umol/l measured within 48 hrs of incubation by MTT assay; format: functional, cell-based
[25] = biological target: T1, NEDD8-activating enzyme E1 regulatory subunit (Homo sapiens); test: Inhibition of NAE-mediated neddylation in human MGC803 cells assessed as reduction in Nedd8-Cullin3 adduct formation at 10 uM incubated for 24 hrs by Western blot analysis; format: cell-based; conditions: MGC-803
MGC-803 [26] = test: Increase in CHOP protein expression in human MGC803 cells at 5 to 20 umol/l incubated for 24 hrs by Western blot analysis; format: functional, cell-based
MGC-803 [27] = test: Induction of apoptosis in human MGC803 cells at 5 to 20 umol/l incubated for 48 hrs by AnnexinV-FITC/PI staining based flow cytometric analysis relative to control; format: functional
[28] = biological target: T1, NEDD8-activating enzyme E1 regulatory subunit (Homo sapiens); test: Inhibition of NAE-mediated neddylation in human MGC803 cells assessed as reduction in Nedd8-Ubcl2 adduct formation at 10 uM incubated for 24 hrs by Western blot analysis relative to control; format: cell-based; conditions: MGC-803

**Q.** Which IC50 (MGC-803 [1]) does the source give for `COc1cccc(Nc2nnc(Cl)c(Nc3cc(OC)c(OC)c(OC)c3)n2)c1` here?
**A.** 16.5 µM

**Q.** What about the IC50 (ECa-109 cell line) of the same compound?
**A.** 15.9 µM

**Q.** And the IC50 (PC-3)?
**A.** 11.3 µM

**Q.** How did the IC50 (MGC-803 [1]) turn out when `COc1cc(Nc2nc(Nc3ccc(C)cc3)nnc2Cl)cc(OC)c1OC` was run?
**A.** 19.8 µM

**Q.** What about the IC50 (ECa-109 cell line) of the same compound?
**A.** 27.3 µM

**Q.** What about the IC50 (PC-3) of the same compound?
**A.** 14.3 µM

**Q.** `COc1cc(Nc2nc(Nc3ccc(C(C)=O)cc3)nnc2Cl)cc(OC)c1OC` was tested. Which IC50 (MGC-803 [1]) did it give?
**A.** 13 µM

**Q.** And the IC50 (ECa-109 cell line)?
**A.** 36.3 µM

**Q.** What about the IC50 (PC-3) of the same compound?
**A.** 38.6 µM

**Q.** With `COc1cc(Nc2nc(Cl)nnc2Cl)cc(OC)c1OC` as the compound, how does the inhibition ([2]; MGC-803) read?
**A.** Dose-dependent effect

**Q.** How did the IC50 (MGC-803 [1]) turn out when `COc1cc(Nc2nnc(Cl)c(Nc3cc(OC)c(OC)c(OC)c3)n2)cc(OC)c1OC` was run?
**A.** 24.3 µM

**Q.** What about the IC50 (ECa-109 cell line) of the same compound?
**A.** > 50 µM

**Q.** What about the IC50 (PC-3) of the same compound?
**A.** 34.3 µM

**Q.** With `COc1cc(Nc2nc(Nc3ccc(C(N)=O)cc3)nnc2Cl)cc(OC)c1OC` as the compound, how does the IC50 (MGC-803 [1]) read?
**A.** 15.2 µM

**Q.** What about the IC50 (ECa-109 cell line) of the same compound?
**A.** 42.4 µM

**Q.** And the IC50 (PC-3)?
**A.** 32.1 µM

**Q.** For `COc1cc(Nc2nc(Nc3ccc(Cl)cc3)nnc2Cl)cc(OC)c1OC`, which IC50 (MGC-803 [1]) is on record?
**A.** 12.6 µM

**Q.** What about the IC50 (ECa-109 cell line) of the same compound?
**A.** 32.6 µM

**Q.** And the IC50 (PC-3)?
**A.** 9.61 µM

**Q.** With `COc1cc(Nc2nc(Nc3ccc4c(ccn4C)c3)nnc2Cl)cc(OC)c1OC` as the compound, how does the IC50 (MGC-803 [1]) read?
**A.** 28.1 µM

**Q.** And the IC50 (ECa-109 cell line)?
**A.** 42.1 µM

**Q.** What about the IC50 (PC-3) of the same compound?
**A.** 48.5 µM

**Q.** `NS(=O)(=O)OC[C@@H]1C[C@@H](n2ccc3c(N[C@H]4CCc5ccccc54)ncnc32)C[C@@H]1O` was tested. Which inhibition [3] did it give?
**A.** Active

**Q.** With `COc1cc(Nc2nc(Nc3ccccc3)nnc2Cl)cc(OC)c1OC` as the compound, how does the IC50 (MGC-803 [1]) read?
**A.** 8.75 µM

**Q.** And the IC50 (ECa-109 cell line)?
**A.** 12.6 µM

**Q.** And the IC50 (PC-3)?
**A.** 9.75 µM

**Q.** Which results are given for `COc1cc(Nc2nc(Nc3ccc4[nH]ccc4c3)nnc2Cl)cc(OC)c1OC`?
**A.** inhibition [4]: Active; inhibition ([2]; MGC-803, TDE = time-dependent effect): Tde; Activity (MGC-803 [5]): Active; inhibition [6]: Active; inhibition [7]: Active; Activity (MGC-803 [8]): Active; Activity (MGC-803 [9]): Active; inhibition [10]: Dose-dependent effect; EC50 [11]: 3.56 µM; fold change (FC) (MGC-803 [12]): 1.3; inhibition (MGC-803 [13]): Active; inhibition (MGC-803 [14]): Active; inhibition (MGC-803 [1]): Dose-dependent effect; IC50 (MGC-803 [1]): 8.22 µM; Activity (MGC-803 [15]): Active; Activity (MGC-803 [16]): Active; inhibition (MGC-803 [17]): Active; IC50 (ECa-109 cell line): 9.64 µM; fold change (FC) (MGC-803 [18]): 2; Activity (MGC-803 [19]): Active; Activity (MGC-803 [20]): Active; Activity (MGC-803 [21]): Active; inhibition (MGC-803 [22]): Active; IC50 (PC-3): 9.28 µM; Activity (MGC-803 [23]): Active; Activity (MGC-803 [24]): Active; inhibition [25]: Active; Activity (MGC-803 [26]): Active; Activity (MGC-803 [27]): 60%; inhibition [28]: 100%

**Q.** `CCOC(=O)c1ccc(Nc2nnc(Cl)c(Nc3cc(OC)c(OC)c(OC)c3)n2)cc1` was tested. Which IC50 (MGC-803 [1]) did it give?
**A.** 53.6 µM

**Q.** And the IC50 (ECa-109 cell line)?
**A.** 46.6 µM

**Q.** And the IC50 (PC-3)?
**A.** 58.5 µM

**Q.** What does the source list for `COc1cc(Nc2nc(Nc3ccc(Br)cc3)nnc2Cl)cc(OC)c1OC`?
**A.** IC50 (MGC-803 [1]): 11.3 µM; IC50 (ECa-109 cell line): 41.6 µM; IC50 (PC-3): 8.99 µM

**Q.** How did the IC50 (ECa-109 cell line) turn out when `O=c1[nH]cc(F)c(=O)[nH]1` [FLUOROURACIL] was run?
**A.** 21.2 µM

**Q.** What does the source list for `COc1ccc(Nc2nnc(Cl)c(Nc3cc(OC)c(OC)c(OC)c3)n2)cc1`?
**A.** IC50 (MGC-803 [1]): 18.9 µM; IC50 (ECa-109 cell line): 22.3 µM; IC50 (PC-3): 13.5 µM
